Test results reported in patent US9078811B2, “Methods of increasing oral bioavailability of tetracyclines” (Paratek Pharmaceuticals, Inc., priority 2006, dated 2015).
Where a name gives a salt, the structure may show the parent alone.

Legend:
Type in all cases: in vivo
[1] = PK and oral bioavailability following dosing via oral gavage in rats
Method: Solutions of 9-[(2,2, dimethyl-propyl amino)-methyl]-minocycline freebase (5 mg/kg [2 ml/kg]) were administered by oral gavage. The solutions were composed of 9-[(2,2, dimethyl-propyl amino)-methyl]-minocycline alone or in combination with bioavailability enhancing agents to assess their effect on oral bioavailability.
The % F was calculated using the IV data presented in Example 1 and the equation: % F=Oral AUC/IV AUC.

[2] = PK following intravenous administration in rats; settings: for AUC: IV 1 mg/kg, jugular vein
Method: The bioavailability of 9-[(2,2, dimethyl-propyl amino)-methyl]-minocycline following intravenous administration in rats was studied. The freebase (“FB”) and the HCl salt (“HCl salt”) of 9-[(2,2, dimethyl-propyl amino)-methyl]-minocycline were used. All formulations were prepared fresh on the day of the experiment. Samples for pharmacokinetic analysis were collected from a cannula within the carotid artery of the rats. Intravenous doses of (1 mg/kg) were administered to rats through cannulas in either the jugular or portal veins.

[3] = PK and bioavailability following intra-duodenal administration in rats
Method: In order to measure the effect of delivering 9-[(2,2, dimethyl-propyl amino)-methyl]-minocycline directly into the duodenum, rats bearing duodenal cannulas were administered 9-[(2,2, dimethyl-propyl amino)-methyl]-minocycline freebase alone or in combination with bioavailability enhancing agents to assess their effects on bioavailability.

[4] = Effects of permeability enhancers on bioavailability, oral gavage in rats
Method: As a control, a solution of 9-[(2,2, dimethyl-propyl amino)-methyl]-minocycline freebase (“freebase”) was prepared using sterile water and the final pH was adjusted to ˜5. To prepare the sodium caprate (sodium decanoate, a compound that increases paracellular permeability) containing solution, the freebase was first dissolved in sterile water and sodium caprate was then added to a final concentration of 13 mM. The resulting solution was administered to rats via oral gavage without pH adjustment. The solution of freebase containing 1.5% chitosan was then prepared by first dissolving the freebase in sterile water and then adjusting the pH of this solution (pH ˜8.1) to a final pH ˜5 using 1N HCl. Chitosan was then added to a final concentration of 1.5% and the resulting solution was administered to rats via oral gavage as a slurry.

[5] = rats with duodenal cannulas, intra-duodenal administration

Row | Compound | % F (oral bioavailability) ([1]; oral gavage 5 mg/kg, calculated using the IV data of Example 1) | AUC ([1]; oral gavage, 5 mg/kg [2 ml/kg] solution) | AUC ([2]; fasted, 1 mg/kg) | differences in pharmacokinetic parameters, freebase vs HCl salt ([2]; IV, fasted animals) | effects of first pass hepatic elimination on pharmacokinetics ([2]; after IV dosing) | % F [3, 5] | AUC [3, 5] | change in AUC when administered directly to the duodenum ([3]; rats, intra-duodenal) | % F [4] | AUC [4] | AUC ([2]; fed) | total exposure (AUC) and clearance, portal vein vs jugular vein ([2]; IV, fasted animals) | tendency for higher clearance in a fed group ([2]; IV, fed vs fasted)
1 | CN(C)c1cc(CNCC(C)(C)C)c(O)c2c1C[C@H]1C[C@H]3[C@H](N(C)C)C(O)=C(C(N)=O)C(=O)[C@@]3(O)C(O)=C1C2=O [FB, 9-[(2,2, dimethyl-propylamino)-methyl]-minocycline] | 11.7 ± 4.1% | 330 ± 120 ng·h/mL | 0.57 (0.50; 0.63) ug*hr/mL | no significant differences | no significant effects | 15.4 ± 5.2% | 440 ± 150 ng·h/mL | significant increase in AUC | 11.7 ± 4.1% | 330 ± 120 ng·h/mL |  |  | 
2 | CN(C)c1cc(CNCC(C)(C)C)c(O)c2c1C[C@H]1C[C@H]3[C@H](N(C)C)C(O)=C(C(N)=O)C(=O)[C@@]3(O)C(O)=C1C2=O [HCl salt, 9-[(2,2, dimethyl-propylamino)-methyl]-minocycline] |  |  | 0.59 (0.45; 0.73) ug*hr/mL | no significant differences |  |  |  |  |  |  | 0.46 ± 0.04 µg·h/mL | equal | ~22%
